Source: patent US4486594A, “Thiazolidine derivatives and production thereof” (Takeda Chemical Industries, Ltd., priority 1982, dated 1984)
Values belong to the compound of their own block, whether it stands above or below them.

Tests used:
[1] = tested on: Sorbitol accumulation in lens; experiment: Inhibition of sorbitol accumulation in the lens of streptozotocin-diabetic rats; assay type: in vivo, Sprague-Dawley rats; conditions: 25 mg/kg orally, twice a day for two days; relative to the control
Experimental: (§1) Sprague-Dawley rats (male, 5-7 week old, five rats/group) were fasted for 18 hours. The rats were made diabetic by an intravenous injection of 70 mg/kg of streptozotocin (Produced by Cal Biochem) at the site of the tail under ether anesthesia. After the administration of streptozotocin, these rats were administered orally with 25 mg/kg of the test compounds (5% suspension of gum-arabica) for two days twice a day (at 9.00 a.m. and at 4.00 p.m.). During this period, these rats were allowed free access to CE-2 feedstuff (Produced by Clea Japan) and water while determining blood-sugar level of each animal. On the morning of the third day, these rats were decapitated and bled, then the lens and sciatic nerve were quickly excised. The respective contents of sorbitol in the lens and sciatic nerve were determined by the enzymatic assay method described by R. S. Clements et al., in Science, 166, p. 1007 (1969) applied to the extracts of these organs obtained by the method described by M. J. Peterson et al., in Metabolism, 28, 456 (1979).
(§2) The results are shown in the Table below as % inhibition relative to the control. Incidentally, no significant difference in blood-sugar level was observed between the group of test animals to which the test compounds were administered and the control group of the test animals to which no test compounds were administered.

[2] = tested on: Sorbitol accumulation in sciatic nerve; experiment: Inhibition of sorbitol accumulation in the sciatic nerve of streptozotocin-diabetic rats; assay type: in vivo, Sprague-Dawley rats; conditions: 25 mg/kg orally, twice a day for two days; relative to the control
Experimental: as §1, §2

[3] = target: T1, partially purified aldose reductase preparation from human placenta (Homo sapiens, UniProt P15121); experiment: Aldose reductase inhibitory action; assay type: biochemical; conditions: 10^-6 M; human placenta enzyme
T1 construct: partially purified aldose reductase preparation from human placenta; from tissue; host or cells: human placenta
Experimental: Aldose reductase inhibitory action was assayed in accordance with the method disclosed by S. Haymen et al. in Journal of Biological Chemistry, Vol. 240, p. 877 (1965) and that disclosed by Jin H. Kinoshita et al. in Metabolism, Vol. 28, Nr. 4, Suppl. 1, 462 (1979). The enzyme used in the assay was a partially purified aldose reductase preparation from human placenta. The results for the respective compounds were expressed as % inhibition at the concentration of 10^-6 mole and are shown in Table 1.

[4] = tested on: mice; experiment: Oral acute toxicity in mice; assay type: in vivo

Compound: COc1ccc(C2SC(=O)NC2=O)cc1OC (centres unmarked) [reference compound]
Inhibition of Sorbitol Accumulation (%), Lens [1]: 62%
Inhibition of Sorbitol Accumulation (%), Sciatic Nerve [2]: -2%

Compound: O=C1NC(=O)C(c2ccc3c(c2)CCCC3)S1 (centres unmarked) [Example 2, 5-(5,6,7,8-tetrahydro-2-naphthyl)thiazolidine-2,4-dione]
inhibition at 1 µM [3]: 36%
Inhibition of Sorbitol Accumulation (%), Lens [1]: 73%
Inhibition of Sorbitol Accumulation (%), Sciatic Nerve [2]: 79%
oral LD50 [4]: no less than 100 mg

inhibition at 1 µM [3]: 30%
Compound: O=C1NC(=O)C(c2ccc3c(c2)CCC3)S1 (centres unmarked) [Example 4, 5-(5-indanyl)thiazolidine-2,4-dione]
Inhibition of Sorbitol Accumulation (%), Lens [1]: 62%
Inhibition of Sorbitol Accumulation (%), Sciatic Nerve [2]: 66%

inhibition at 1 µM [3]: 34%
Compound: O=C1NC(=O)C(c2ccc3c(c2)CCCCC3)S1 (centres unmarked) [Example 1, 5-(6,7,8,9-tetrahydro-5H-benzocycloheptadien-2-yl)thiazolidine-2,4-dione]
Inhibition of Sorbitol Accumulation (%), Lens [1]: 65%
Inhibition of Sorbitol Accumulation (%), Sciatic Nerve [2]: 83%

Compound: Cc1ccc(C2SC(=O)NC2=O)cc1C (centres unmarked) [reference compound]
Inhibition of Sorbitol Accumulation (%), Lens [1]: 18%
Inhibition of Sorbitol Accumulation (%), Sciatic Nerve [2]: 5%
